Type in all cases: functional, organism-based
The species named for assay [1] is Rattus norvegicus. Nature of the assay: % chelator inside the intestinal sac in animal 3 at lower (distal) segment of the intestine starting from the proximal end.
The species entered for assay [2] is Rattus norvegicus. Put plainly: % chelator inside the intestinal sac in animal 2 at lower (distal) segment of the intestine starting from the proximal end.
The species named for assay [3] is Rattus norvegicus. Nature of the assay: % chelator inside the intestinal sac in animal 1 at middle segment of the intestine starting from the proximal end.
Assay [4] is filed under the species Rattus norvegicus. Nature of the assay: % chelator inside the intestinal sac in animal 2 at middle segment of the intestine starting from the proximal end.
Assay [5] is filed under the species Rattus norvegicus. Nature of the assay: % chelator inside the intestinal sac in animal 3 at middle segment of the intestine starting from the proximal end.
Assay [6] is filed under the species Rattus norvegicus. Put plainly: % chelator inside the intestinal sac in animal 3 at upper segment of the intestine starting from the proximal end.
Assay [7] is filed under the species Rattus norvegicus. Put plainly: % chelator inside the intestinal sac in animal 1 at lower (distal) segment of the intestine starting from the proximal end.
For assay [8], the species on record is Rattus norvegicus. Nature of the assay: % chelator inside the intestinal sac in animal 1 at upper segment of the intestine starting from the proximal end.
For assay [9], the species on record is Rattus norvegicus. Put plainly: % chelator inside the intestinal sac in animal 2 at upper segment of the intestine starting from the proximal end.

`O=C(NCCCCNCCCNC(=O)c1cccc(O)c1O)c1cccc(O)c1O`: the Chelator in the assay filed under Rattus norvegicus [1] was determined as 50%; in the assay listed under Rattus norvegicus [2] it was 32%; in the assay filed under Rattus norvegicus [3], 40%; in the assay filed under Rattus norvegicus [4], 35%; in the assay listed under Rattus norvegicus [5], 44%; in the assay listed under Rattus norvegicus [6] it was 32%. Besides, the values for the Chelator in the assay listed under Rattus norvegicus [7], in the assay filed under Rattus norvegicus [8] and in the assay filed under Rattus norvegicus [9] were 44%, 42% and 33%, respectively.

The record behind these values is ChEMBL document CHEMBL1121544, “Synthesis, absorption, and toxicity of N1,N8-bis(2,3-dihydroxybenzoyl)spermidine, a potent iron chelator” (J Med Chem, 1980).
